Reference: US8921373B2, “Compounds having TRPV1 antagonistic activity and uses thereof” (Shionogi & Co., Ltd., priority 2010, dated 2014)

target: human recombinant TRPV1 (Homo sapiens (Human), UniProt Q8NER1); experiment: TRPV1 pH-Based Assay (Protocol 2, Ca2+ response in TRPV1/CHO cells, Fura-2); assay type: cell-based; settings: not given
Method: For Protocol 2, a Chinese Hamster Ovary cell line (CHO) that has been engineered to constitutively express human recombinant TRPV1 was used (TRPV1/CHO cells). The TRPV1/CHO cell line was generated as described below.
TRPV1/CHO cells were seeded in the 96-well clear-bottom black-wall plate (Nunc) at densities of 1-2×10^4 cells/well and grown in 100 μL of culture medium (alpha-MEM supplemented with 10% FBS, 20 mM HEPES, 1 mg/mL geneticin and 1% antibiotic-antimycotic mixed stock solution) for 1-2 days before the experiment.
(2) The 96-well plate was incubated at 37° C. for 45 min.
(3) The loading buffer was removed from each well. […] The wells were then refilled with 80 μL of measuring buffer.
(4) After an incubation at 4° C. for 15 min, the 96-well plate was transferred to FDSS-3000 (Hamamatsu Photonics, Japan).
(5) The Fura-2 fluorescent intensity was monitored at a wavelength of 340 nm and at 380 nm, respectively, at a rate of 0.5 Hz for a total of 240 seconds. After 16 time points (32 sec) of baseline detection, 20 μL of agonist solution was added to each well. The final volume was 100 μL/well.
(6) Fluorescence intensity ratio refers to the fluorescence intensity at 340 nm over the fluorescence intensity at 380 nm at a particular time point. The baseline was set as the average of the fluorescent intensity ratios for the first 16 time points before the addition of agonist solution. The maximum response was the highest fluorescent intensity ratio during the 60 time points following addition of agonist solution.
(7) Maximal signal ratios from each well were calculated as output data using the FDSS-3000 analysis program. Data were analyzed using Excel (Microsoft) and XLfit (idbs) software.
Two different agonist solutions with different H2SO4 concentrations were used for the pH assay (FIG. 3A). For one half of a 96-well plate one agonist solution was used, for the other half the other agonist solution. The agonist solutions were obtained by diluting sulfuric acid (H2SO4, 1M) with measuring buffer. The concentrations for the two agonist solutions were determined as described above in Section 2 of Protocol 2.
The sulfuric acid concentrations between the two agonist solutions differed by 0.5 mM. […] After 1:4 dilution of the agonist solutions, the final sulfuric acid concentration was 3.2 mM and 3.3 mM, respectively. The resulting pH value for the pH assay was 5.0 to 5.1.
Test compounds were dissolved in DMSO to yield 1 mM stock solutions. […] The thereby-obtained solutions were further diluted in measuring buffer (1:100) as 10× stock serial dilutions with a DMSO concentration of 1%. 10 μL of a 10× stock was added into each well at step 3.3.(4) of Protocol 2.
Steps (1) and (2) of this Assay were the same as steps 2.2.(1) and 2.2.(2) of Protocol 2, respectively.
(3) The cells were washed twice with 150 μL of measuring buffer (mentioned in 2.2.(3) of Protocol 2, no probenecid). The wells were subsequently refilled with 70 μL of measuring buffer.
(4) Either 10 μl of measuring buffer or 10 μL of 10× stock serial dilution of test compound (described in 3.2. above) were applied to each well. Usually, only one test compound was tested per 96-well plate. The number of replicates per 96-well plate for a particular antagonist at a particular concentration was 7×2 since two different sulfuric acid concentrations were used per 96-well plate (N=7×2) (FIG. 3).
Step (5) was the same as 2.2.(4) above.
(6) Fura-2 fluorescent intensity was monitored as described in 2.2.(5) above. After 16 time points of baseline detection, 20 μL of agonist solution (measuring buffer titrated with H2SO4 to yield pH 5.0-5.1 when mixed 1:4 with the measuring buffer containing test compound) was added to each well (final volume 100 μL/well).
Steps (7) and (8) were as described in 2.2.(6) and 2.2.(7) above, respectively.
(1) The pH values of the buffer in the wells of A1→H1 and A7→H7 (longitudinally; FIG. 3) were measured one by one using a portable pH meter.

Chain of human recombinant TRPV1 (Q8NER1 whole entry): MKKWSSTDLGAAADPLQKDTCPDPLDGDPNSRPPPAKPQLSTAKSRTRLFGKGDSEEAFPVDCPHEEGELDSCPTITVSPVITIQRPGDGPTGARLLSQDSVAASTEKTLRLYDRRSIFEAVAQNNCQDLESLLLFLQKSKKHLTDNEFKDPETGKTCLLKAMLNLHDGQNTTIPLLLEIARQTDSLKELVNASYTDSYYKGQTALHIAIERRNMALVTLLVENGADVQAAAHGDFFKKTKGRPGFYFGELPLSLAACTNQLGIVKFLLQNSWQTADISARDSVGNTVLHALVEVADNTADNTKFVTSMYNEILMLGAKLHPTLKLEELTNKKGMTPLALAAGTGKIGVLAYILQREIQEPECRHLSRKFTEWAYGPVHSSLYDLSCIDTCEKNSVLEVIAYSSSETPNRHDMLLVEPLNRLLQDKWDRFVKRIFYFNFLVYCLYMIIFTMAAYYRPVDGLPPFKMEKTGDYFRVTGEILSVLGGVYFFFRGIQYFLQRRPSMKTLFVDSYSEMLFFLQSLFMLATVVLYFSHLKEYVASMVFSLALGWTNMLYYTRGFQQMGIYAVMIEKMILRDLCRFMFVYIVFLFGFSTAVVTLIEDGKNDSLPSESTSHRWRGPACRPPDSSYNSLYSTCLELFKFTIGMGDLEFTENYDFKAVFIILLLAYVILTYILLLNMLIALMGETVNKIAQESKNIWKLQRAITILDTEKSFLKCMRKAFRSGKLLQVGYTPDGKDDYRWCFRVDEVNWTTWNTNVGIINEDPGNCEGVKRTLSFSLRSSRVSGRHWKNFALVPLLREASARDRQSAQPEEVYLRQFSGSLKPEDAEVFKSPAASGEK

Row | SMILES | IC50 [nM]
1 | O=C(Nc1nc2cc(F)c(F)cc2s1)N1CCN(c2ncc(C[C@@H](O)CO)cc2F)CC1 [AFA] | ≤ 50

same assay, conditions: TRPV1/CHO cells, pH 5.0-5.1; comparative compounds without the substituted alkyl group; read-out: TRPV1 IC50 Potency (pH-Based Assay), Comparative compound IC50

Row | SMILES | IC50 [nM]
2 | C[C@@H]1CN(c2ncccc2Cl)CCN1C(=O)Nc1nc2ccc(F)cc2s1 [reference compound] | 24
3 | O=C(Nc1ccc(C(F)(F)F)c(Cl)c1)N1CC=C(c2ncccc2Cl)CC1 [drawing 478, reference compound] | 139
4 | O=C(Nc1ccc(C(F)(F)F)c(Cl)c1)N1CC=C(c2ncccc2Cl)CC1 [drawing 493, reference compound] | 77
5 | O=C(Nc1nc2ccc(F)cc2s1)N1CC=C(c2ncccc2Cl)CC1 [reference compound] | 943

same assay, conditions: TRPV1/CHO cells, pH 5.0-5.1; compounds of the invention; read-out: TRPV1 IC50 Potency (pH-Based Assay), Compound IC50

Row | SMILES | IC50 [nM]
6 | O=C(Nc1ccc(C(F)(F)F)cc1)N1CC=C(c2ncc(CC(O)CO)cc2Cl)CC1 (stereo not shown) | 12
7 | O=C(Nc1ccc(C(F)(F)F)cn1)N1CC=C(c2ncc(CC(O)CO)cc2Cl)CC1 (stereo not shown) | 38
8 | O=C(Nc1ccc(OC(F)(F)F)cn1)N1CC=C(c2ncc(C(F)(F)[C@@H](O)CO)cc2Cl)CC1 | 46
9 | O=C(Nc1nc2ccc(C(F)(F)F)cc2s1)N1CCC(F)(c2ncc(C[C@H](O)CO)cc2Cl)CC1 | 614
10 | O=C(Nc1ccc(C(F)(F)F)cn1)N1CCC(F)(c2ncc([C@H](O)[C@H](O)CO)cc2Cl)CC1 | 143
11 | O=C(Nc1ccc(OC(F)(F)F)c(Cl)c1)N1CC=C(c2ncc(C[C@@H](O)CO)cc2Cl)CC1 | 17
12 | O=C(Nc1ccc(C(F)(F)F)c(Cl)c1)N1CC=C(c2ncc(CC(O)CO)cc2Cl)CC1 (stereo not shown) | 10
13 | O=C(Nc1nc2ccc(C(F)(F)F)cc2s1)N1CCC(F)(c2ncc([C@H](O)[C@H](O)CO)cc2Cl)CC1 | 171

The remaining lines, values ahead:

Row | IC50 [nM] | SMILES
14 | 5 | O=C(Nc1nc2ccc(F)cc2s1)N1CC=C(c2ncc(CC(O)CO)cc2Cl)CC1 (stereo not shown)
15 | 1 | CO[C@@H]1CN(c2ncc(C[C@@H](O)CO)cc2Cl)CCN1C(=O)Nc1nc2ccc(F)cc2s1

same assay, conditions: TRPV1/CHO cells, pH 5.0-5.1; read-out: IC50 value by the pH-Based Assay

Row | SMILES | IC50 [nM]
16 | O=C(Nc1ccc(C(F)(F)F)cn1)N1CC=C(c2ncc(C[C@@H](O)CO)cc2Cl)CC1 [AAJ, (R)-4-(3-Chloro-5-(2,3-dihydroxypropyl)pyridin-2-yl)-N-(5-(trifluoromethyl)pyridin-2-yl)-5,6-dihydropyridine-1(2H)-carboxamide] | ≤ 50
17 | Cc1cc(NC(=O)N2CC=C(c3ncc(C(F)(F)[C@@H](O)CO)cc3Cl)CC2)ccc1C(F)(F)F [ADC, (S)-4-(3-chloro-5-(1,1-difluoro-2,3-dihydroxypropyl)pyridin-2-yl)-N-(3-methyl-4-(trifluoromethyl)phenyl)-5,6-dihydropyridine-1(2H)-carboxamide] | ≤ 50
18 | Cc1cc([C@H](O)[C@@H](O)CO)cnc1C1(F)CCN(C(=O)Nc2ccc(C(F)(F)F)c(Cl)c2)CC1 [ABH, N-(3-Chloro-4-(trifluoromethyl)phenyl)-4-fluoro-4-(3-methyl-5-((1S,2S)-1,2,3-trihydroxypropyl)pyridin-2-yl)piperidine-1-carboxamide] | ≤ 50
19 | Cc1cc(NC(=O)N2CCC(F)(c3ncc(C[C@H](O)CO)cc3F)CC2)ccc1OC(F)(F)F [ACR, (S)-4-(5-(2,3-dihydroxypropyl)-3-fluoropyridin-2-yl)-4-fluoro-N-(3-methyl-4-(trifluoromethoxy)phenyl)piperidine-1-carboxamide] | ≤ 50
20 | O=C(Nc1nc2ccc(F)cc2s1)N1C2CCC1CN(c1ncc(C[C@H](O)CO)cc1F)C2 [AHB] | ≤ 50
21 | O=C(Nc1ccc(C(F)(F)F)c(Cl)c1)N1CC=C(c2ncc(C[C@@H](O)CO)cc2F)CC1 [AAY, (R)-N-(3-chloro-4-(trifluoromethyl)phenyl)-5-(2,3-dihydroxypropyl)-3-fluoro-5′,6′-dihydro-[2,4′-bipyridine]-1′(2′H)-carboxamide] | ≤ 50
22 | Cc1cc(NC(=O)N2CC=C(c3ncc(C[C@H](O)CO)cc3Cl)CC2)ccc1C(F)(F)F [ACG, (S)-4-(3-Chloro-5-(2,3-dihydroxypropyl)pyridin-2-yl)-N-(3-methyl-4-(trifluoromethyl)phenyl)-5,6-dihydropyridine-1(2H)-carboxamide] | ≤ 50
23 | O=C(Nc1ccc(C(F)(F)F)c(Cl)c1)N1CC=C(c2ncc(C[C@H](O)CO)cc2F)CC1 [AAZ, (S)-N-(3-chloro-4-(trifluoromethyl)phenyl)-5-(2,3-dihydroxy-propyl)-3-fluoro-5′,6′-dihydro-[2,4′-bipyridine]-1′(2′H)-carboxamide] | ≤ 50
24 | O=C(Nc1ccc(C(F)(F)F)c(Cl)c1)N1CCC(F)(c2ncc([C@H](O)[C@@H](O)CO)cc2Cl)CC1 [ABG, N-(3-Chloro-4-(trifluoromethyl)phenyl)-4-(3-chloro-5-((1S,2S)-1,2,3-trihydroxypropyl)pyridin-2-yl)-4-fluoropiperidine-1-carboxamide] | ≤ 50

More lines, now with the values ahead:

Row | IC50 [nM] | SMILES
25 | ≤ 50 | C[C@H]1CN(C(=O)Nc2nc3ccc(F)cc3s2)CCN1c1ncc(C[C@H](O)CO)cc1F [AFM, (S)-4-(5-((S)-2,3-dihydroxypropyl)-3-fluoropyridin-2-yl)-N-(6-fluorobenzo[d]thiazol-2-yl)-3-methylpiperazine-1-carboxamide]
26 | ≤ 50 | C[C@@H]1CN(c2ncc(C[C@H](O)CO)cc2F)CCN1C(=O)Nc1nc2ccccc2s1 [AGX]
27 | ≤ 50 | Cc1ccc2nc(NC(=O)N3CCN(c4ncc(C[C@H](O)CO)cc4F)[C@@H](C)C3)sc2c1 [AFP, (S)-4-(5-((S)-2,3-dihydroxypropyl)-3-fluoropyridin-2-yl)-3-methyl-N-(6-methylbenzo[d]thiazol-2-yl)piperazine-1-carboxamide]
28 | ≤ 50 | O=C(Nc1nc2ccc(F)cc2s1)N1CC=C(c2ncc(C[C@@H](O)CO)cc2Cl)CC1 [AAL, (R)-4-(3-Chloro-5-(2,3-dihydroxypropyl)pyridin-2-yl)-N-(6-fluorobenzo[d]thiazol-2-yl)-5,6-dihydropyridine-1(2H)-carboxamide]
29 | ≤ 50 | Cc1ccc2nc(NC(=O)N3CCN(c4ncc(C[C@@H](O)CO)cc4F)[C@@H](C)C3)sc2c1 [AFO, (S)-4-(5-((R)-2,3-dihydroxypropyl)-3-fluoropyridin-2-yl)-3-methyl-N-(6-methylbenzo[d]thiazol-2-yl)piperazine-1-carboxamide]
30 | ≤ 50 | O=C(Nc1nc2ccccc2s1)N1CCN(c2ncc(C[C@H](O)CO)cc2Cl)CC1 [ADS]
31 | ≤ 50 | C[C@H]1CN(c2ncc(C[C@@H](O)CO)cc2F)CCN1C(=O)Nc1nc2ccc(F)cc2s1 [AEJ]
32 | ≤ 50 | Cc1cc2nc(NC(=O)N3CCN(c4ncc(C[C@H](O)CO)cc4F)C[C@@H]3C)sc2cc1C [AEU]
33 | ≤ 50 | C[C@H]1CN(C(=O)Nc2nc3cc(F)c(F)cc3s2)CCN1c1ncc(C[C@H](O)CO)cc1F [AGL]
34 | ≤ 50 | C[C@H]1CN(c2ncc(C[C@@H](O)CO)cc2C(F)(F)F)CCN1C(=O)Nc1nc2ccccc2s1 [AGV]
35 | ≤ 50 | C[C@H]1CN(c2ncc(C[C@H](O)CO)cc2F)CCN1C(=O)Nc1nc2cc(F)c(F)cc2s1 [AEZ]
36 | ≤ 50 | C[C@H]1CN(c2ncc(C[C@H](O)CO)cc2F)CCN1C(=O)Nc1nc2ccc(SC(F)(F)F)cc2s1 [AGR]
37 | ≤ 50 | C[C@@H]1CN(c2ncc(C[C@H](O)CO)cc2F)C[C@H](C)N1C(=O)Nc1nc2ccc(F)cc2s1 [AFU]
38 | ≤ 50 | O=C(Nc1nc2ccc(F)cc2s1)N1CC=C(c2ncc(C[C@H](O)CO)cc2Cl)CC1 [AAH]
39 | ≤ 50 | Cc1cc2nc(NC(=O)N3CCN(c4ncc(C[C@@H](O)CO)cc4F)C[C@@H]3C)sc2cc1C [AET]
40 | ≤ 50 | C[C@H]1CN(c2ncc(C[C@H](O)CO)cc2F)CCN1C(=O)Nc1nc2ccc(F)cc2s1 [AEL]
